The text below walks through data of patent EP0687468A2, “Pharmaceutical composition for suppressing infiltration of eosinophils” (Toyo Boseki Kabushiki Kaisha, priority 1994, dated 1995).

In assay [1] the test system is adhesion of eosinophils to vascular endothelial cells. As to the kind of experiment: Inhibition of adhesion of eosinophils to TNF-treated HUVEC. The class given is cell-based. The conditions noted are these: test compound concentration at TNF treatment and adhesion reaction; HUVEC treated with 100 U/ml TNF for 6 hours; adhesion reaction 20 minutes; human peripheral blood eosinophils. As for the experimental part:
Human umbilical vein-derived endothelial cells (HUVEC) were placed in a single layer in a 96 well plate and treated with 100 U/mi tumor necrosis factor (TNF) for 6 hours. The eosinophils obtained from peripheral blood of healthy human were fluorescence-labeled and layered on the TNF-treated HUVEC. After adhesion reaction for 20 minutes, unadhered eosinophils were removed by washing and fluorescent intensity of each well of the plate was measured to determine the eosinophils adhered to the HUVEC. The test compound was added so that the concentration at TNF treatment and adhesion reaction was 10-^SM.

The test system of assay [2] is infiltration of eosinophils in the airway. As to the kind of experiment: Infiltration of eosinophils into bronchovesicles in rats (ovalbumin induced). In kind it is in vivo. The following applies: 10 mg/kg orally 5 minutes before and 5 hours after antigen induction; OA-sensitized male BN rats; bronchial wash 24 hours later. As for the experimental part: An ovalbumin (OA) antigen (10 mg/kg) was intramuscularly administered to male BN rats, and 5 x 10^10 nonvial Bordetella pertussis cells were intraperitoneally administered to sensitize them. Fourteen days later, the rats were exposed to 2% OA to induce infiltration of eosinophils in the airway. Twenty-four hours later, bronchial tubes were washed and infiltrated cells were recovered to count the infiltrated eosinophils. The test compound (10 mg/kg) was orally administered 5 minutes before and 5 hours after the induction with antigen.

Assay [3] has as its system intraperitoneal infiltration of eosinophils. As to the kind of experiment: Intraperitoneal infiltration of eosinophils in rat (Ascaris extract induced). In kind it is in vivo. The conditions noted are these: 3 mg/kg orally once a day for 9 days; Asc-sensitized male Wistar rats; eosinophils counted 48 hours after antigen induction. As for the experimental part: Ascaris extract (Asc, protein amount 8 mg) was intraperitoneally administered to male Wistar rats to sensitize them. Seven days later, 4 mg protein amount of Asc was intraperitoneally administered to induce intraperitoneal infiltration of eosinophils. Forty-eight hours after the antigen induction, abdominal cavity was washed, and the infiltrated eosinophils were counted. The test compound (3 mg/kg) was orally administered once a day for 9 days from the day of antigen sensitization to one day before recovery of the infiltrated intraperitoneal cells.

For the compound `CC(=O)OCC(=O)Nc1cc(C#N)cc(N)c1Cl` [3-(acetoxyacetylamino)-5-amino-4-chlorobenzonitrile], in assay [1], the “Suppression of adhesion of eosinophils (%)” value was found to be 70%. The “Suppression of infiltration of eosinophils (%)” value in assay [2] amounted to 53%; in assay [3], 55%.
On the same counts, the results for `N#Cc1cc(N)c(Cl)c(NC(=O)CO)c1` [3-amino-4-chloro-5-(hydroxyacetylamino)benzonitrile] are 74%, 48% and 54%.
For `COCC(=O)Nc1cc(C#N)cc(N)c1Cl` [3-amino-4-chloro-5-(methoxyacetylamino)benzonitrile], in that order: 62%, 56% and 42%.
